The text below walks through data of ChEMBL document CHEMBL5365447, “Pronucleotides of 2',3'-Dideoxy-2',3'-Didehydrothymidine as Potent Anti-HIV Compounds” (J Med Chem, 2023).

Series [1] in a line: Retention time of the compound by HPLC analysis. Type of series: physicochemical.
Series [2] is described as follows: Chemical stability of the compound in phosphate buffer assessed as half life at pH 7.3 by HPLC analysis. Type of series: physicochemical.
A short description of series [3]: Prodrug conversion in pH 7.3 phosphate buffer assessed as ((2S,5R)-5-(5-methyl-2,4-dioxo-3,4-dihydropyrimidin-1(2H)-yl)-2,5-dihydrofuran-2-yl)methyl tri-hydrogen diphosphate formation by measuring half life in presence of pig liver esterase by HPLC analysis. Type of series: ADME.
The nature of series [4]: Prodrug conversion in human CEM/0 cell extract assessed as metabolite formation by measuring half life by HPLC analysis. Type of series: ADME. The conditions noted are these: ccrf-cem.
The subject of series [5] is Human immunodeficiency virus 1. Briefly: Antiviral activity against HIV-1 HE infected in wild-type human CEM/0 cells assessed as inhibition of virus-induced cytopathic effect incubated for 4 to 5 days by light microscopic analysis. The format is functional, organism-based. The conditions noted are these: Human immunodeficiency virus 1, HE, CCRF-CEM. (In general: Cytopathic effects are the visible damage that an infection or toxin causes in cultured cells.)

The subject of series [6] is Human immunodeficiency virus 2. Briefly: Antiviral activity against HIV-2 ROD infected in wild-type human CEM/0 cells assessed as inhibition of virus-induced cytopathic effect incubated for 4 to 5 days by light microscopic analysis. The note with it: Human immunodeficiency virus 2, ROD, CCRF-CEM. Type of series: functional, organism-based.
In series [7] the test system is Human immunodeficiency virus 2. Briefly: Antiviral activity against HIV-2 ROD infected in thymidine kinase-deficient human CEM cells assessed as inhibition of virus-induced cytopathic effect incubated for 4 to 5 days by light microscopic analysis. The format is functional, organism-based. The note with it: Human immunodeficiency virus 2, ROD, CCRF-CEM.
Series [8] in a line: Cytotoxicity against human CEM cells assessed as reduction in cell viability incubated for 4 to 5 days by light microscopic analysis. The format is toxicity, cell-based. The conditions noted are these: CEM cells (CCRF-CEM), time 4-5 day.
The nature of series [9]: Selectivity index, ratio of CC50 for human CEM cells to EC50 for HIV-2 ROD infected in thymidine kinase-deficient human CEM cells. The conditions noted are these: read-out: Ratio CC50/EC50. Type of series: toxicity.
The test system of series [10] is Human immunodeficiency virus. Briefly: Substrate activity at HIV reverse transcriptase measured after 4 hrs by electrophoresis based primer extension assay.
For series [11], the target named is T1, DNA polymerase alpha catalytic subunit (Homo sapiens) (UniProt P09884).
T1 sequence (whole entry): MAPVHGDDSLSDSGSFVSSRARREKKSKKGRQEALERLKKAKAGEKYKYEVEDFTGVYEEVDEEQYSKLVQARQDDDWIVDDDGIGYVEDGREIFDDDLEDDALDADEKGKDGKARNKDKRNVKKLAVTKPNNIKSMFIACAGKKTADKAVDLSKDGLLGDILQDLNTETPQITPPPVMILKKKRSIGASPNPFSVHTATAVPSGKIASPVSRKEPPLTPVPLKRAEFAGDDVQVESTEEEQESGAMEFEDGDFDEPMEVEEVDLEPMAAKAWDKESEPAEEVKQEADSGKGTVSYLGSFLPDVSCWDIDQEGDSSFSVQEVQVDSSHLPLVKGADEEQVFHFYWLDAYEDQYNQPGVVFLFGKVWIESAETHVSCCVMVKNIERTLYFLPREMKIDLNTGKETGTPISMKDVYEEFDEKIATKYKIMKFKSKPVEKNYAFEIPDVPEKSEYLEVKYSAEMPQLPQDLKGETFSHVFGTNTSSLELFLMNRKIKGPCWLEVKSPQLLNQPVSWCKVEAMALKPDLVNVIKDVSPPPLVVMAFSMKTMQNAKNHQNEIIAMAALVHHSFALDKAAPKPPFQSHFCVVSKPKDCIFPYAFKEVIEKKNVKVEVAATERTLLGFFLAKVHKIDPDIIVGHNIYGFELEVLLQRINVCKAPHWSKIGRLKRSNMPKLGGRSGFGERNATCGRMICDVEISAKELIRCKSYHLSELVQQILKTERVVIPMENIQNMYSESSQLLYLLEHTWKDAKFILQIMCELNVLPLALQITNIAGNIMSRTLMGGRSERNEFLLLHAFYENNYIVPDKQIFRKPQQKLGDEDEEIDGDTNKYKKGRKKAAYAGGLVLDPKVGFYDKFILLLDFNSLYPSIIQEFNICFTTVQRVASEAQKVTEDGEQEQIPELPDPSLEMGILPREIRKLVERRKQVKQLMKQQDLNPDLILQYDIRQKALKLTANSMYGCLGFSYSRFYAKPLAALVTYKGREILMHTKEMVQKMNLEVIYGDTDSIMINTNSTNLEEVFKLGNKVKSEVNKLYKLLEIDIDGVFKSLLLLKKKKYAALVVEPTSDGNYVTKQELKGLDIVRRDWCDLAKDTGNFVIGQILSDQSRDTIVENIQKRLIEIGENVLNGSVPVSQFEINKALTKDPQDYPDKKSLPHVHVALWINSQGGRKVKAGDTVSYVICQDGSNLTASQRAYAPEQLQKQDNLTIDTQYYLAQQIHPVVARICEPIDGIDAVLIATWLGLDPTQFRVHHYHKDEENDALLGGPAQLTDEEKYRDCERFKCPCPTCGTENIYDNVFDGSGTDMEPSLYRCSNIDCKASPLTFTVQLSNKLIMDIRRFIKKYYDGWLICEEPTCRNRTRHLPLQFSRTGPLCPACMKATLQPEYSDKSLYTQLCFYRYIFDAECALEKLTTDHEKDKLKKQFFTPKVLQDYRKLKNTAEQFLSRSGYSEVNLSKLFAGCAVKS
The series is described as follows: Substrate activity at human DNA polymerase alpha measured after 4 hrs by electrophoresis based primer extension assay.

Series [12] deals with DNA polymerase beta (Homo sapiens) (UniProt P06746). Briefly: Substrate activity at human DNA polymerase beta measured after 4 hrs by electrophoresis based primer extension assay.
The target in series [13] is T2, DNA polymerase subunit gamma-1 (Homo sapiens) (UniProt P54098).
T2 sequence (whole entry): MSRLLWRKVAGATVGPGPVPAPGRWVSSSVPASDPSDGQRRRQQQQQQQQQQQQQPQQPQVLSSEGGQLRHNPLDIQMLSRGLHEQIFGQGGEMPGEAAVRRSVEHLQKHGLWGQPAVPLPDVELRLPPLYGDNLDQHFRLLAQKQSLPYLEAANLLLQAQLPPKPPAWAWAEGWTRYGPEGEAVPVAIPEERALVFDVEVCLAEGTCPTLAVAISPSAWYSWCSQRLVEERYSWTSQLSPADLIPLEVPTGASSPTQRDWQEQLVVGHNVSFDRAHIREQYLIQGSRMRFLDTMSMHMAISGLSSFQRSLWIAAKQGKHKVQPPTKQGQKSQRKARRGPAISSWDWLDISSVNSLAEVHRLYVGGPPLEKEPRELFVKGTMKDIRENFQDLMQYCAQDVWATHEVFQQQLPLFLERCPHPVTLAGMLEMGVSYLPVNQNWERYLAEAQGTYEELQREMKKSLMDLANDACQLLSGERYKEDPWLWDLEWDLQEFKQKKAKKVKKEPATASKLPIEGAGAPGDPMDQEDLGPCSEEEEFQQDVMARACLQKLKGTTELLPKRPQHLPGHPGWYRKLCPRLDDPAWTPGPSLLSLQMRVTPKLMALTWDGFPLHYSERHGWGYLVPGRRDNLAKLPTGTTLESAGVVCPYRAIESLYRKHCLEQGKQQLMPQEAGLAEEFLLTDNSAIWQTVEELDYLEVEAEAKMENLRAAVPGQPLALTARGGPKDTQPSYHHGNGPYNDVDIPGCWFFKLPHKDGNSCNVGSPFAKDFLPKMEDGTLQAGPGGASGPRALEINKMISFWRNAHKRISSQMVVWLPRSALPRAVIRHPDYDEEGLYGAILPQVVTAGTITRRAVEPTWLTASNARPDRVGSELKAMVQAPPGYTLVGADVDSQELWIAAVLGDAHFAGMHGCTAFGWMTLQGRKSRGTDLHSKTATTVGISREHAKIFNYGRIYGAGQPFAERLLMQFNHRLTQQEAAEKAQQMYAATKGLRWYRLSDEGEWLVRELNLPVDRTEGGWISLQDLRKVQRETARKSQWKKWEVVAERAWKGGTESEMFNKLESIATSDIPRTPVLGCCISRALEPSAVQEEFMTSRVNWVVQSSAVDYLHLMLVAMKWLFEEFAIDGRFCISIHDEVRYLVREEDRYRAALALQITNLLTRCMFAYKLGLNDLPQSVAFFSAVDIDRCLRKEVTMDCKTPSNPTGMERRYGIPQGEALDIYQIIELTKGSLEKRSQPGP
The series is described as follows: Substrate activity at human DNA polymerase gamma measured after 4 hrs by electrophoresis based primer extension assay.

The test system of series [14] is Human immunodeficiency virus 1. Briefly: Potency index, ratio of 3'-deoxy-2',3'-dehydrothymidine EC50 to compound EC50 for antiviral activity against HIV-1 HE infected in wild-type human CEM/0 cells. The format is functional.
Series [15] has as its system Human immunodeficiency virus 2. The series is described as follows: Potency index, ratio of 3'-deoxy-2',3'-dehydrothymidine EC50 to compound EC50 for antiviral activity against HIV-2 ROD infected in wild-type human CEM/0 cells. Type of series: functional.
Series [16] deals with Human immunodeficiency virus 2. Briefly: Potency index, ratio of 3'-deoxy-2',3'-dehydrothymidine EC50 to compound EC50 for antiviral activity against HIV-2 ROD infected in thymidine kinase-deficient human CEM[…] cells. Type of series: functional.

Active and inactive are the calls of the source.

One may read the half-life as the time needed for the level to fall by half in the phase considered. By EC50 is commonly meant the concentration giving half of the maximal effect. By CC50 is commonly meant the concentration giving 50% cytotoxicity.

With `CCCCCCCCCCCCCCCCCCOP(=O)(OC)OP(=O)(O)OP(=O)(O)OC[C@@H]1C=C[C@H](n2cc(C)c(=O)[nH]c2=O)O1.N.N` (some centres not stated), the Retention_time in series [1] is reported as 15.6 min. Also, in [2], the half-life was 32.9 days. The t1/2 in series [3] is above 6.25 days; in series [4], above 0.625 days. For the same molecule, the EC50 in series [5] came out at 77 nM; in series [6], 25 nM; in series [7], 15 nM. The CC50 in [8] turned out to be 34000 nM. The selectivity ratio in [9] is 2270. Also, the outcome in [10] was Active. Further, the outcome in [11], in [12] and in series [13] was inactive. The “Ratio EC50” value in series [14] came to 4; in [15] it was 4; in series [16], 10000.

In series [1], `CCCCCCCCCCCCCCCCCCOP(=O)(OCC(CC)CCCC)OP(=O)(O)OP(=O)(O)OC[C@@H]1C=C[C@H](n2cc(C)c(=O)[nH]c2=O)O1.N.N` (some centres not stated) had a Retention_time of 17.3 min. The half-life in [2] was above 83.3 days. In addition, the Drug metabolism entry in series [3] and in series [4] was “Metabolite_Notdetected” throughout. For the same molecule, the results for the EC50 in series [5], in series [6] and in [7] were 75 nM, 36 nM and 5 nM, respectively. For the same molecule, the CC50 in series [8] came out at 34000 nM. The selectivity ratio in [9] is 6800. For the same molecule, the outcome in [10] was Active. Moreover, the outcome in series [11], in series [12] and in [13] was inactive. The “Ratio EC50” value in series [14] came out at 4; in [15] it was 4; in series [16], 10000.

In series [1], `CCCCCCCCCCCCCCCCCCP(=O)(OCC(CC)CCCC)OP(=O)(O)OP(=O)(O)OC[C@@H]1C=C[C@H](n2cc(C)c(=O)[nH]c2=O)O1.N.N` (some centres not stated) registered a Retention_time of 17.1 min. The half-life in series [2] was above 41.7 days. Moreover, the Drug metabolism entry in series [3] and in [4] was “Metabolite_Notdetected” each time. For the same molecule, the EC50 came to 90 nM in series [5], 140 nM in series [6] and 240 nM in series [7]. Also, the CC50 in [8] came out at 42000 nM. In addition, the selectivity ratio in [9] worked out at 175. Further, the result in series [11], in [12] and in [13] was inactive. For the same molecule, the “Ratio EC50” value was determined as 4 in series [14], 4 in [15] and 10000 in series [16].

`CCCCCCCCCCCCCCCCCCP(=O)(OCCCCCCCCCCCC)OP(=O)(O)OP(=O)(O)OC[C@@H]1C=C[C@H](n2cc(C)c(=O)[nH]c2=O)O1.N.N` (some centres not stated) displayed a Retention_time in series [1] of 18.9 min. Also, the half-life in [2] was 34.6 days. In addition, the Drug metabolism result in series [3] and in series [4] was “Metabolite_Notdetected” each time. Also, the EC50 in series [5] came to 130 nM; in [6], 210 nM; in series [7], 350 nM. In series [8], the CC50 stood at 50000 nM. Further, the selectivity ratio in series [9] was found to be 143. Also, the result in series [11], in series [12] and in series [13] was inactive. Further, the “Ratio EC50” value is listed as 4 in series [14], 4 in [15] and 10000 in [16].
